Values of other authors as cited in patent US4867987A, “Pharmaceutical product for the sustained release of ibuprofen” (priority 1986, dated 1989).

Compound: CC(C)Cc1ccc(C(C)C(=O)O)cc1 (stereo not shown) [ibuprofen, 2-(4-isobutylphenyl)propionic acid]
- complete elimination of ibuprofen and its metabolites after the last administration: ≤ 24 h
